Laboratory results taken from patent US20200370076A1, “USE OF GALACTURONATE AND OR GALACTURONATE POLYMERS IN CONJUNCTION WITH CARBOHYDRATES TO CONTROL METABOLIC STATE OF ORGANISMS” (Department of the Army, U.S. Army CCDC Army Research …, priority 2019, published 2020).

Legend:
[1] = test system: Clostridium acetobutylicum; experiment: Fermentation product formation by Clostridium acetobutylicum grown on different substrates; format: cell-based; settings: organism grown on the named substrate
Procedure: Experimentally, mixtures of any of galacturonate and galacturonate polymers with glucose are fed to Clostridium acetobutylicum. It was observed that the organism co-utilized the substrates. […] Bacterial culture conditions and strains have been previously published. […] Clostridium acetobutylicum strain ATCC 824 was obtained from ATCC and cultured using company protocol at 37° C. into Clostridial growth medium or CGM containing 0.75 g KH2PO4, 0.75 g K2HPO4, 1.0 g NaCl, 0.017 g MnSO4.5H2O, 0.70 g MgSO4.7H2O, 0.01 g FeSO4.7H2O, 2.0 g […], 5.0 g yeast extract, 2.0 g (NH4)2SO4, and 0.5% final concentration of desired carbohydrate-D-glucose, D-galacturonic acid, D-gluconic acid-at pH 6.5. Active cultures from initial growth stock were added to potato glucose medium to be maintained and stored as a spore solution. Potato glucose medium or PGM contains per liter of H2O-150 g grated fresh potato, 10 g D-glucose, 0.5 g (NH4)SO4, and 3 g CaCO3. The medium was boiled for 1 hour and strained through gauze before sterilization and use for culture. Spore solution was activated for culturing through a heat shock at 80° C. for 9 minutes. Shocked spore solution was added to CGM containing the feed stock of choice and grown to late log of 0.8 at optical density of 600 nm (OD600) at 37° C. Theses cultures were then used to perform antibiotic sensitivity experiments.

[2] = test system: Clostridium acetobutylicum; experiment: Substrate concentration over time during co-fed fermentation (FIG. 4); format: cell-based
From the text: FIG. 4 is a graph illustrating the uptake of individual oxidized sugars mixed for co-feeding during a fermentation process of Clostridial acetobutylicum; FIG. 4, with reference to FIGS. 1 through 3, is a graph illustrating the concentration of various feedstock during a fermentation process. […] The co-utilization of any of galacturonate and galacturonate polymers with glucose could be used to control the metabolic state of the cells by altering the production of reduced electron carriers such as NADH and/or NADPH. This can allow for fine-tuning production of chemicals. The overall trend of the concentration over time shown in FIG. 4 for galacturonic (gal) acid and glucose (glu) is generally the same; i.e., a gradual decrease in the concentration over time. For example, the concentration of the galacturonic acid is approximately 7.5 at time 0 with a gradual decline in concentration to approximately 4 at approximately 3 hours, followed by a greater decline in concentration resulting in a 0 concentration at approximately 7 hours.

O=C[C@H](O)[C@@H](O)[C@@H](O)[C@H](O)C(=O)O [galacturonate, D-galacturonic acid]
acetate produced [1]: approximately 23.6 mM
butyrate produced [1]: approximately 0.6 mM
concentration of feedstock during fermentation ([2]; FIG. 4, approximately 3 hours): approximately 4
concentration of feedstock during fermentation ([2]; FIG. 4, approximately 7 hours): 0
concentration of feedstock during fermentation ([2]; FIG. 4, glucose/galacturonate co-feeding, time 0): approximately 7.5
